For orientation: solubility means the dissolved amount per volume that the medium holds. A high value points to a readily soluble substance.

The nature of data set [1]: physchem.
Method: (§1) PBS (EGCG) or water (tannic acid) was added and the final solution filtered through a 0.22 micron filter to remove any particulates. The solutions were analyzed for drug concentration using HPLC.
(§2) PBS (EGCG) or water (tannic acid) was added and the final solution filtered through a 0.22 micron filter to remove particulates. The solution was then analyzed for drug concentration using absorbance spectroscopy at 450 nm.
(§3) PBS (EGCG) or water (tannic acid) was added and the final solution was filtered through a 0.22 micron filter to remove any particulates and the solution was analyzed for drug concentration using HPLC.
(§4) PBS (EGCG) or water (tannic acid) was added and the final solution filtered through a 0.22 micron filter to remove any particulates and the solution was analyzed for drug concentration using HPLC.
(§5) PBS (EGCG) or water (Tannic acid) was added and the final solution was filtered through a 0.22 um filter to remove any particulates and the solution was analyzed for drug concentration using HPLC.
(§6) Method: drug and EGCG or tannic acid were dried down from acetonitrile (or methanol for tannic acid) solutions at various drug to EGCG or tannic acid ratios. PBS (EGCG) or water (Tannic acid pH adjusted to 7) was added and the final solution was filtered through a 0.22 um filter to remove any particulates and the solution was analyzed for drug concentration using HPLC methods.
For data set [2] the following is noted: 24 h.
Method: as §1, §2, §3, §4, §5, §6
Data set [3] can be described thus: physchem. The class given is physicochemical. The following applies: for solubility: thermodynamic from solid. On the procedure: Method: Solutions of finasteride and either EGCG or tannic acid at various weight percentages in ethanol were dried down under nitrogen. Water was added and the dried material suspended/dissolved. […] The pH of tannic acid solutions was brought up to 7 by the addition of NAOH.

Data set [4] can be described thus: Release of finasteride from PVA foam embolization particles and Embospheres. Format: physicochemical. Here is the method:
Method: PVA foam embolization particles (Cook. Medical Bloomington Ind.) size 180-300 um. Vial of 220 mg split into two. 150 mg of EGCG with 10 mg of finasteride or 250 mg tannic acid with 1 mg of finasteride were dried as a common film from ethanol and solubilised in 1 ml of water and added to the 100 mg of PVA particles. Solutions were mixed for 30 minutes. At this time it was observed that all the EGCG or tannic acid color (pink or brown respectively) had disappeared from the solution and gone into the PVA which was now heavily colored. The solution was discarded and the PVA freeze dried. 10 mg of the EGCG formulation or 5 mg of the tannic acid formulation was added to 2 ml of PBS (pH 7.4) and the release of finasteride was measured over 2 weeks.
Embospheres: Syringe contents ((Embospheres 500-700 um Merit Medical S. Jordan Utah) were split into two and incubated in water solutions of finasteride (1 mg/ml in 35 mg of EGCG or tannic acid made up from dried films as above) for 30 minutes with shaking. At this time it was observed that all the EGCG or tannic acid color (pink or brown respectively) had disappeared from the solution and gone into the Embospheres which were no heavily colored. The solution was discarded. 20% of the resulting particles (still wet) were then placed in microcentrifuge tubes containing 2 ml of PBS and drug release was measured.

A short description of data set [5]: Release from PLGA microspheres +/- EGCG or tannic acid. Conditions: for drug released: first 20 days. Format: physicochemical. On the procedure: Method: The method involved pipetting a solution of the polymer PLGA (usually 20% w/v) and drug (usually 5% w/w to polymer) and EGCG (e.g. 20% w/w/ to polymer) in dichlomethane (DCM) (5 ml) into 100 ml of 2.5% PVA solution in water stirring at 450 rpm. The suspension was left stirring for 2 hours and the microspheres washed 4 times in distilled water. The microspheres were then dried under vacuum for 2 days. Drug encapsulation was measured by dissolving a known weight of microspheres in 1 ml of dichloromethane followed by immediate dilution to 10 ml in 60:40 acetonitrile/water. The amount of drug or EGCG in the top and bottom phase of this solution was measured using HPLC methods (mobile phase 58:37:5 Acetonitrile:water:methanol. 1 ml per min flow on a c18 column with detection at 232 nm)
Tannic acid: An alternative method was used, termed a water-in oil-in water emulsion. […] This forms a primary emulsion of water droplets in the PLGA solution stabilized by Span. When this emulsion was pipetted into the PVA solution the microspheres formed well. […] The microspheres were a light brown in color indicative of tannic acid encapsulation.
Methods: In these studies, 10 mg of microspheres were suspended in 2 ml of phosphate buffered saline (pH 7.4 10 mM phosphate) in microcentrifuge tubes and tumbled at 8 rpm at 37° C. The tubes were then centrifuged at 12000×g and the supernatants collected for drug analysis by HPLC. 2 ml of fresh PBS was then placed on top of the microspheres which were returned to the 37° C. oven for continued incubation with tumbling.
At the end of the study the residual mass of polymer and drug was dissolved in DCM and drug extracted into 60:40 acetonitrile:water to measure residual drug. The amounts of residual drug were 89% for plga alone (at 31 days), 16% for EGCG and 8% for tannic acid (both at 51 days) as expressed as a % of the original loading.

Data set [6] can be described thus: Liquid pharmaceutical excipients in gallate based pastes (solubility, viscosity score, pellet in water). The class given is physicochemical. The source says: Various additional water/soluble/miscible liquids were explored (in addition to propylene glycol and polyethylene glycol) as excipients in gallate based pastes.
A viscosity score was established as follows: 1) Fluid—22 gauge needle; 2) Semi Viscous—18 gauge needle; 3) Viscous—16 gauge needle; 4) Waxy Pellet in water.

A further data set deals with Caco2 cells. Briefly: Uptake and transfer of amphoterecin B into Caco2 cells. Format: in vitro ADME, human. Conditions: 3 hours, versus ambisome. On the procedure:
Caco2 cells were seeded onto 0.3 um transwell membranes and treated as in Example 9. A solution of amphoterecin B (250 ug per ml) in EGCG (25 mg per ml), tannic acid (25 mg/ml) in Hanks buffer pH 7.4. or ambisome was added to the top well for 3 hours. The bottom reservoir was collected and treated as in Example 8.

The nature of data set [7]: Drug release from injectable PG:gallate pastes (60:40) into PBS. Format: physicochemical. Conditions: 60:40 PG:EGCG or PG:tannic acid, 2% w/w drug, PBS pH 7.4, 37° C. On the procedure:
Methods: 60:40% w/w PG:EGCG or PG:tannic acid was used in these studies. 588 mg of propylene glycol was weighed into a 20 mL glass vials and 392 of EGCG or tannic acid was added followed by vortexing to distribute and dissolve the gallates. The vials were warmed to 60° C. and vortexed until all the contents were in solution. At this time 20 mg of drug was added (2% w/w) and vortexed until in solution. The following drugs were used: paclitaxel, docetaxel, retinoic acid, amphotericin B, and curcumin. 100 mg of each paste was weighed into the base of a 15 mL glass test tube and 10 mL of phosphate buffered saline was added at pH 7.4 and the tubes were incubated at 37° C. for certain times. All 10 mL of the PBS release media was removed and 1 mL analyzed by HPLC for drug content. 10 mL of fresh PBS was then added to all tubes

A short description of data set [8]: Drug concentrations obtained using EGCG at 50 mg per ml (microscopic check for particulates). Format: physicochemical. On the procedure:
EGCG at 50 mg/ml and drug at approximately 250 micrograms per ml were dissolved in the listed solvent and dried down in a test tube under nitrogen. 1 ml of water was added, followed by vortexing. The solutions were examined for particulate matter under a microscope. If no particulates were present, the process was repeated with a higher drug amount. All the tested drugs remained in solution at the listed concentrations except for nystatin and hesperidin.

Where [9] appears, read: aqueous with cosolvent or surfactant or cyclodextrin, thermodynamic from solid, drug concentration solubilised at maximum EGCG concentration.

≈ marks a conversion by molar mass, not a printed value. Where only a bound is given, the exact number is not on record here.

Consider `CC(C)(C)NC(=O)[C@H]1CC[C@H]2[C@@H]3CC[C@H]4NC(=O)C=C[C@]4(C)[C@H]3CC[C@]12C` [finasteride], for which the solubility in “physchem [1]” (setting [9]) was approximately 11000 µg/mL (≈ 29.5 mM); in “physchem [1]” (pH 7, aqueous with cosolvent or surfactant or cyclodextrin, thermodynamic from solid, drug concentration solubilised at maximum tannic acid concentration) it was approximately 10000 µg/mL (≈ 26.8 mM); in “physchem [3]” (aqueous with cosolvent or surfactant or cyclodextrin) it was more than 10000 µg/mL; in “physchem [3]” (pH 7, aqueous with cosolvent or surfactant or cyclodextrin), 8000 to 10000 µg/mL (≈ 21.5 to 26.8 mM); in the data set “physchem [3]” (water), 75 µg/mL (≈ 0.201 mM). In data set [2], the “stability of EGCG solutions of the drug” value is given as “stable for 24 hours”. For the same compound, in data set [2], the “stability of tannic acid solutions of the drug” value is given as “stable for 24 hours”. Besides, the stability of solutions result in the data set “physchem [3]” (24 h) is recorded as “stable over 24 hours”. Besides, the finasteride release in data set [4] (PVA incubated with tannic acid/finasteride solution, PBS, in 3 days) came to 100%. In data set [4] (the other embolic particles (PVA with EGCG, Embospheres with EGCG or tannic acid)), the “period of finasteride release” value is “over a two week period”. Also, the drug released entry in data set [5] (PLGA microspheres with EGCG) and in data set [5] (PLGA microspheres with tannic acid) was “approx 80%” each time. Besides, in data set [5] (PLGA microspheres without EGCG or tannic acid, after 32 days), the encapsulated drug released was 7%. Further, the “residual drug as % of the original loading” value in [5] (PLGA with EGCG, at 51 days) worked out at 16%; in data set [5] (PLGA with tannic acid, at 51 days) it was 8%; in data set [5] (plga alone, at 31 days), 89%.

Turning to Tween 80, in data set [6], the “Solubility of EGCG in excipient” value was 15% and the “Solubility of tannic acid in excipient” value was 15%.

For the compound `C[C@@H]1[C@H](O)[C@@H](C)/C=C/C=C/C=C/C=C/C=C/C=C/C=C/[C@H](O[C@@H]2O[C@H](C)[C@@H](O)[C@H](N)[C@@H]2O)C[C@@H]2O[C@](O)(C[C@@H](O)C[C@@H](O)[C@H](O)CC[C@@H](O)C[C@@H](O)CC(=O)O[C@H]1C)C[C@H](O)[C@H]2C(=O)O` [amphotericin, amphotericin B], the “drug uptake and transport through the cells” value in the data set with Caco2 cells (250 ug per ml in EGCG 25 mg per ml) and in the data set with Caco2 cells (250 ug per ml in tannic acid 25 mg/ml) was “much higher levels” throughout. Besides, the solubility was approximately 1800 µg/mL (≈ 1.95 mM) in the data set “physchem [1]” (setting [9]); approximately 5700 µg/mL (≈ 6.17 mM) in the data set “physchem [1]” (aqueous with cosolvent or surfactant or cyclodextrin, thermodynamic from solid, drug concentration solubilised at maximum tannic acid concentration); 1 to 10 µg/mL (≈ 0.00108 to 0.0108 mM) in the data set “physchem [1]” (water, free solubility in water). Also, in data set [7], the “drug release from PG:gallate paste” value is recorded as “relatively controlled release of the drug over 24 hours”. Further, the Visual appearance result in data set [8] was “clear”. Also, the “Drug Concentration” value in data set [8] (1 ml of water) was determined as 125 microgram/ml. Also, the Particulates present entry in [8] (under a microscope) is given as “no”. In data set [2], the “stability of EGCG solutions of the drug” value was “stable for 24 hours”. For the same compound, the “stability of tannic acid solutions of the drug” value in data set [2] is “stable for 24 hours”.

Values taken from patent publication US11707557B2, “Compositions and devices incorporating water-insoluble therapeutic agents and methods of the use thereof” (COOK MEDICAL TECHNOLOGIES LLC, priority 2014, dated 2023).
